Laboratory results published in US10100052B2, “Compounds for the treatment of hepatitis B virus infection” (Gilead Sciences, Inc., priority 2016, dated 2018).

What was measured:
[1] = In vitro metabolic stability, hepatic microsomes (human); type: in vitro ADME; settings: pooled hepatic microsomes, pH 7.4; human hepatic microsomes 1.0 mg/mL, 1 μM compound, NADPH and UDPGA cofactors; read-out: Microsome Stability T1/2 Human
Procedure: Pooled hepatic microsomes were diluted in […] potassium phosphate buffer to 1.0 mg/mL final protein concentration. Alamethicin was added to the microsomal fraction to permeabilize the membrane to allow access of the UDP-glucronic acid (UDPGA) co-substrate to the active site of the UDP glucuronosyl transferase (UGT) enzymes. The final concentration was 25 μg/mL (ratio 25 μg alamethicin/mg microsomal protein) and the microsomes were then placed on ice for 15 min prior to the start of the reaction. Test compound was added to a final concentration of 1 μM. Positive control compounds known to be metabolized by oxidative and UGT enzymes were used. The metabolic reaction was warmed to 37° C. and initiated by the addition of a cofactor mix that consisted of 1.55 mM NADP, 3.3 mM glucose-6-phosphate, 0.4 U/mL glucose-6-phosphate dehydrogenase, 5 mM UDP-glucuronic acid and 3.3 mM MgCl2 all dissolved in 0.1 M potassium phosphate buffer, pH 7.4. At 2, 12, 25, 45, and 65 min, 25 μL aliquots of the reaction mixture were transferred to plates containing 225 μl of quenching solution (acetonitrile containing 300 nM labetalol IS and 0.1% formic acid). After quenching, the plates are centrifuged at 3000×g for 30 minutes to precipitate proteins, and 10 μL aliquots of the supernatant are analyzed by HPLC coupled to a high-resolution mass spectrometer.
Quantification of test compounds and positive controls were performed using analyte/internal standard peak area ratios (PAR) measured on a Q-Exactive mass spectrometer (Thermo Scientific, San Jose, Calif.) coupled to an Aria Transcend LX-4 multiplex UHPLC system (Thermo Scientific, San Jose, Calif.). A Hypersil Gold C18 UHPLC column (1.9 […], 50×2.1 mm) was used with mobile phases A and B consisting of 0.1% formic acid in water and 0.1% formic acid in acetonitrile, respectively. […] Half-lives of compounds in the incubations were calculated from extracted data using GMSU/QuickCalc (Gubbs, Inc.) and data are summarized in the following Table 3.

MT-4 cytotoxicity assay = type: cell-based; settings: human, MT-4 cells; five days incubation, Cell Titer Glo
Procedure: The MT-4 cell line (HTLV-1 transformed, human T lymphoblastoid cells) was obtained from the NIH AIDS Reagent program (Bethesda, Md.). MT-4 cells were maintained in RPMI-1640 supplemented with 10% fetal bovine serum (FBS, Hyclone, Logan, Utah). All cell culture media were also supplemented with 100 Units/mL penicillin, 100 μg/mL streptomycin (Gibco). For the MT-4 cytotoxicity assay, 0.4 μL of serially diluted solutions of certain compounds disclosed herein were added to 40 μL of cell maintenance media in 384-well black, solid bottom plate using a Biomek FX workstation (Beckman Coulter). Two thousand cells in 35 μL were added to each well using a Biotek uFlow Workstation (Biotek). Each assay plate contained 10 μM puromycin (final concentration) and 0.5% DMSO in RPMI-1640 as positive and negative controls, respectively. Assay plates were incubated for five days at 37° C. in an incubator set at 5% CO2 and 90% humidity. After five days, 22 μL of Cell Titer Glo reagent (Promega) was added to the assay plates with a Biotek uFlow Workstation. Plates were subsequently placed on a Perkin Elmer Envision Plate Reader for five minutes before the luminescence signal was read. CC50 values were calculated by non-linear regression using Pipeline Pilot software by applying a four parameter fit equation (Accelrys, San Diego, Calif.) and are reported in the following Table 2.

[2] = Pharmacokinetic analysis following intravenous administration to rats; type: in vivo; settings: male, Sprague-Dawley, rat, intravenous infusion over 30 min, 1 mg/kg; for clearance / Vd: plasma; for Vd: read-out: Vss; for half-life: terminal plasma half-life
Procedure: Pharmacokinetic analysis was performed on various test compounds following intravenous or oral administration to male Sprague-Dawley rats.
For pharmacokinetic analysis of intravenously administered compounds, the test compounds were formulated in 5% NMP, 30% PG, 45% PEG 300 and 20% water at 0.5 mg/mL for IV infusion. For pharmacokinetic analysis following oral administration, compounds were formulated in the same vehicle and concentration.
Each dosing group consisted of 3 male, naïve Sprague-Dawley rats. At dosing, animals weighed approximately 0.28 kg. The animals were fasted overnight prior to dose administration and up to 4 hr after dosing. For studies of intravenous administration, the test article was administered to the animals by intravenous infusion over 30 min. The rate of infusion was adjusted according to the body weight of each animal to deliver a dose of 1 mg/kg. For studies of oral administration, the test article was administered according to the body weight of each animal to deliver a dose of 5 mg/kg.
For pharmacokinetic analysis of intravenously administered compounds, serial venous blood samples (approximately 0.3 mL each) were taken from each animal at 0, 0.250, 0.483, 0.583, 0.750, 1.50, 3.00, 6.00, 8.00, 12.0, and 24.0 hours after dosing. The blood samples were collected into Vacutainer™ tubes containing EDTA-K2 as the anti-coagulant and were immediately placed on wet ice pending centrifugation for plasma. An LC/MS/MS method was used to measure the concentration of the test compound in plasma. An aliquot of 100 μL of each plasma sample was added to a clean 96 well plate, and 400 μL of cold acetonitrile/internal standard solution (ACN)/(ISTD) was added. After protein precipitation, an aliquot of 100 μL of the supernatant was transferred to a clean 96-well plate and diluted with 175 μL of water. An aliquot of 10 μL of the above solution was injected into an ABSciex API-4000 LC/MS/MS system utilizing a HyPurity C18 HPLC column (30×2.1 mm, 3 m; Thermo-Hypersil Part #22103-032130). An Agilent 1200 series binary pump (P/N G1312A Bin Pump) was used for elution and separation, and an HTS Pal autosampler (LEAP Technologies, Carrboro, N.C.) was used for sample injection. A TSQ Quantum Ultra triple quadrupole mass spectrometer was utilized in selective reaction monitoring mode (Applied Biosystems, Foster City, Calif.). Liquid chromatography was performed using two mobile phases: mobile phase A contained 0.1% formic acid and 1% isopropanol in water; and mobile phase B contained 0.1% formic acid and 1% isopropanol in acetonitrile. Non-compartmental pharmacokinetic analysis was performed on the plasma concentration-time data.
The resulting data are shown in the first three columns of Table 4. In Table 4, CL refers to clearance, which characterizes the rate at which drug is removed from plasma. The lower the clearance of a drug is, the longer the elimination half-life is in the body. Vss refers to the steady state volume of distribution and indicates how well a drug is distributed into the tissues. The larger the Vss is, the longer the elimination half-life is in the body. T1/2 refers to the terminal plasma half-life of the compound.

Row | Compound | half-life at 1 μM [1] | CC50 at 5 days (MT-4 cytotoxicity assay) | clearance [2] | Vd [2] | half-life [2]
1 | COCCCOc1cc2c(cc1Cl)-c1cc(=O)c(C(=O)O)cn1[C@H](C1(C)CC1)C2 [Comparative Example 1] | 3.9 h | 4.2 µM | 5.67 mL/min/kg | 0.57 L/kg | 1.62 h
2 | COCCCOc1cc2c(cc1Cl)-c1cc(=O)c(C(=O)O)cn1[C@H](C(C)(C)C)C2 [Comparative Example 2] | 4.9 h | 5.7 µM | 5.05 mL/min/kg | 0.661 L/kg | 1.99 h
3 | COCCCOc1cc2c(cc1Cl)-c1cc(=O)c(C(=O)O)cn1N(C(C)(C)C)C2 [Example 2, 6-(tert-Butyl)-10-chloro-9-(3-methoxypropoxy)-2-oxo-6,7-dihydro-2H-pyrido[2,1-a]-phthalazine-3-carboxylic acid] | > 5.83 h | > 10 µM | 2.97 mL/min/kg | 0.623 L/kg | 3.34 h
